Laboratory results published in patent US20260137081A1, “SUBSTITUTED FURANONES AND USE THEREOF FOR AGRICULTURAL APPLICATIONS” (SOUND AGRICULTURE COMPANY, priority 2021, published 2026).

Tests used:
Type in all cases: in vivo
[1] = system: corn; assay: Corn field trials, grain yield; details: field trials in Illinois and Iowa; applied once in late June; vs untreated control
Protocol: The total amount of Compound 1 applied to each plot ranged from about 5 g/acre to about 20 g/acre.
Corn field trials were performed in Illinois and Iowa. In each trial, individual plots measured 10 feet by 30 feet and each treatment (application of Compound 1 or untreated control) was replicated across 4 plots in a randomized complete block design. Agronomic practices were maintained under standard commercial conditions and products used for weed, insect, and disease control. The Walnut, Illinois trial site was planted in mid-May and harvested in early October. The Richland, Iowa site was planted in late April and harvested in late September. Compound 1 was applied to both sites once in late June. Grain weight and grain moisture were measured for each plot at harvest, data is reported as bushels per acre normalized to 13% moisture content.

[2] = system: corn plants; assay: Chlorophyll fluorescence with LI-COR 6800 after foliar application; details: for minimal fluorescence Fo / maximum fluorescence (Fm): dark-adapted; for light-adapted quantum efficiency of PSII (Fv′/Fm′): in comparison to the mock
Protocol: Greenhouse application of Compound 1: Corn plants were grown in a greenhouse for 9 weeks (V5) prior to treatment. […] The foliar blends were prepared by mixing the formula concentrations into water followed by vigorous mixing. To mimic a foliar application in a corn field (using a spray boom), a uniform coating of the entire plant was carried out (FIG. 2) using a hand-held spray bottle. Following application, the plants were separated to avoid cross contamination (aerosol drift) and allowed to dry. Measurement of chlorophyll fluorescence: Chlorophyll fluorescence measurements were determined 4 hrs and 24 hrs after treatment using a LI-COR 6800 fluorimeter (LI-COR Biosciences; Lincoln, Nebraska). Corn plants were dark-adapted 60-90 min prior to measurement and the youngest fully expanded leaf with a fully formed ligule was used for the measurement. Minimal fluorescence levels in the dark (Fo) and light (Fo′) were recorded by applying a measuring light of 12 μmol photons m^−2 s^−1. Maximum fluorescence levels in the dark (Fm) and light (Fm′) were recorded by applying a saturating pulse of light at 10,000 μmol photons m^−2 s^−1. Maximum quantum efficiency of PSII in the dark (Fv/Fm) and light (Fv′/Fm′) were calculated as (Fm−Fo/Fm) using their respective dark or light-adapted values. NPQ induction was measured after a 5 minute exposure to an actinic light source at 1,000 μmol photons m^−2 s^−1 and calculated as (Fm−Fm′/Fm′).

[3] = system: Corn (Syngenta Agrisure Artesian); assay: Cool Grow Procedure Two (foliar spray of DC formulation vs formulation blank)
Protocol: Corn (Syngenta Agrisure Artesian, Basel, Switzerland) seeds (n=2) were planted in 24 four inch pots containing Sunshine soil #1 (Sun Gro, Agawam, MA) mixed with ⅛ tbsp of 14-14-14 osmocote N—P—K (Bloomington Brands LLC, Bloomington, IN) slow-release fertilizer and Micromax (ICL Specialty Fertilizers) (lg/L). Pots were placed on plant holder trays (11×22 in) with three pots per tray and were set-up in a 4×4 ft Cool Grow tent (capacity: 35 one liter pots) with temperature set at 24° C. and light at 345 μmoL for 12 hours day and night. Upon emergence, one seedling was culled leaving only one plant per pot. Plants were fertilized weekly thereafter starting one week after germination with 20-20-20 NPK (1 tsp/gallon) (Bloomington Brands LLC, Bloomington, IN) applied at ˜800-1000 mL per tray.
At V2-3 stage (14 days after seeding), each plant was sprayed with 7.5 mL of the following formulations: formulation blank DC (12 plants total; Agnique® AMD 3L (N,N-dimethyl lactamide)); Compound 1 DC formulation (9.86 μL of DC formulation from Example 5 dissolved in 50 mL of water). After 90 minutes following spray treatment, photosynthetic measurements were made using Licor. Digital biomass and NDVI measurements were made 21 days after seeding by a PlantEye F600Multispectral 3D scanner (Phenospex, Netherlands) and plants were harvested at 27 days after seeding.

[4] = system: corn plants; assay: Greenhouse foliar application, gas exchange with LI-COR 6800 (carbon assimilation, transpiration, stomatal conductance); details: 0.8 fl. oz rate; 2 and 24 hour time points; compared to the mock
Protocol: Greenhouse application of Compound 1: Corn plants were grown in a greenhouse for 9 weeks (V5) prior to treatment. Eight plants were treated with a mock solution (formulation blank), low rate (0.8 fl. oz) or medium rate (1.7 fl. oz). The low rate and medium rate refer to the volume of the Compound 1 containing solution that is applied to 1 acre of corn plants, and roughly equates to 5 grams of Compound 1 per acre for low rate and about 10 grams of Compound 1 per acre for medium rate. The foliar blends were prepared by mixing the formula concentrations into water followed by vigorous mixing. To mimic a foliar application in a corn field (using a spray boom), a uniform coating of the entire plant was carried out (FIG. 2) using a hand-held spray bottle. Following application, the plants were separated to avoid cross contamination (aerosol drift) and allowed to dry. Measurement of carbon assimilation: Assessment of the effects of Compound 1 on photosynthesis in corn plants, tobacco plants, and soybean plants was performed using a LI-COR 6800 fluorimeter, which measured net carbon assimilation (Anet), transpiration (E) and stomatal conductance (gsw). The youngest fully expanded leaf with a fully formed ligule was used from each plant for sampling. A single sample (biological representative) consisted of averaging the readings from three technical representatives adjacent to each other on each sampled leaf. Each treatment consisted of eight biological representatives (N=8). Photobiology measurements were taken at 2 and 24 hour time points, post application.

`COC1=C(OC)[C@@H]([C@@H]2COC(C)(C)O2)OC1=O` [Compound 1, (5R)-5-(2,2-dimethyl-1,3-dioxolan-4-yl)-3,4-dimethoxyfuran-2(5H)-one] was tested, and the Corn yield [1] was “Increases”, the “light-adapted Fm′” value ([2]; 24 hrs post application) was “not higher” and the “dark-adapted quantum efficiency of PSII (Fv/Fm)” value ([2]; both rates, after 24 hrs) was “higher”. The “minimal fluorescence Fo” value ([2]; high rate, 4 hrs post foliar application, vs low rate and mock control) was “lower”, the “maximum fluorescence (Fm)” value ([2]; high rate, both timepoints (4 and 24 hrs)) was “higher” and the “minimal fluorescence Fo” value ([2]; low and high rates, after 24 hrs, vs mock control) was “lower compared to the mock control”. The “maximum fluorescence (Fm)” value ([2]; low rate, after 24 hrs) was “higher”, the “light-adapted quantum efficiency of PSII (Fv′/Fm′)” value ([2]; high rate, 4 hrs post application) was “higher” and the “dark-adapted quantum efficiency of PSII (Fv/Fm)” value ([2]; high rate, after 4 hrs) was “higher”. The “light-adapted quantum efficiency of PSII (Fv′/Fm′)” value ([2]; low rate, 24 hrs post application) was “higher”, the “light-adapted Fm′” value ([2]; the two rates, 4 hrs post application) was “similarly higher” and the NDVI ([3]; 21 days after seeding, formulation blank DC 0.558, p<0.05) was 0.569. The “mean shoot dry weight” value ([3]; harvest 27 days after seeding, formulation blank DC 3.16, p<0.1) was 3.62 g, the “CO2 assimilation (Anet)” value [4] was “elevated” and the “stomatal conductance (gsw)” value [4] was “elevated”. The “transpiration (E)” value [4] was “elevated”.
